Measured values: patent US8178506B2, “Oligomeric compounds and compositions for use in modulation of small non-coding RNAs” (Regulus Therapeutics Inc., priority 2003, dated 2012)
In the oligonucleotide strings, read from the 5' end, every base follows the letter of its sugar. An asterisk marks phosphorothioate; unmarked linkages are phosphodiester. Other units and linkages are bracketed, terminal groups are in braces. A string of capitals states the bases alone. e = 2'-O-(2-methoxyethyl) (MOE); [5mC] = 5-methylcytosine

Experiments:
[1] = test system: HSL; assay: HSL mRNA expression in adipocytes (real-time PCR); format: cell-based, human; conditions: for HSL (mRNA expression): adipocytes, 250 nM oligomeric compound, day nine post-transfection, relative to control (1.0)
[2] = test system: adipocytes; assay: Triglyceride accumulation assay in adipocytes; format: cell-based, human; conditions: for Triglycerides: differentiating adipocytes day 10 post-induction, 24 hours after treatment
[3] = test system: PPARγ; assay: PPARγ mRNA expression in adipocytes (real-time PCR); format: cell-based, human; conditions: for PPAR gamma (mRNA expression): adipocytes, 250 nM oligomeric compound, day nine post-transfection, relative to control (1.0); for PPAR gamma mRNA: differentiating adipocytes transfected with oligomeric compound; for PPAR-gamma mRNA: differentiating adipocytes day 10 post-induction, 24 hours after treatment
[4] = test system: Glut4; assay: Glut4 mRNA expression in adipocytes (real-time PCR); format: cell-based, human; conditions: for Glut4 (mRNA expression): adipocytes, 250 nM oligomeric compound, day nine post-transfection, relative to control (1.0)
[5] = test system: HuVECs; assay: Endothelial tube formation assay in HuVECs; conditions: 75 nM oligomeric compound
[6] = test system: aP2; assay: aP2 mRNA expression in adipocytes (real-time PCR); format: cell-based, human; conditions: for AP2 (mRNA expression): adipocytes, 250 nM oligomeric compound, day nine post-transfection, relative to control (1.0)
[7] = adipocytes, 250 nM oligomeric compound, relative to control (1.0), Table 15
[8] = adipocytes, 250 nM oligomeric compound, relative to control (1.0), Table 16
[9] = differentiating adipocytes transfected with oligomeric compound
[10] = 50 nM, differentiating adipocytes day 10 post-induction, 24 hours after treatment
[11] = 100 nM, differentiating adipocytes day 10 post-induction, 24 hours after treatment
[12] = 200 nM, differentiating adipocytes day 10 post-induction, 24 hours after treatment
[13] = 300 nM, differentiating adipocytes day 10 post-induction, 24 hours after treatment
[14] = Table 20, adipocyte differentiation assay as in Example 13
[15] = differentiating adipocytes transfected with oligomeric compound, Table 75

## 327903 (antisense eA*eA*e[5mC]*eT*eA*eT*eA*e[5mC]*eA*eA*e[5mC]*e[5mC]*eT*eA*e[5mC]*eT*eA*e[5mC]*e[5mC]*eT*e[5mC]*eA) [compound 327903]
[1]; Table 15
  HSL (mRNA expression): 1.23
[1]; Table 16
  HSL (mRNA expression): 0.80
[2]; [7]
  TG (triglyceride accumulation): 1.20
[2]; [8]
  TG (triglyceride accumulation): 0.58
[3]; Table 15
  PPAR gamma (mRNA expression): 1.19
[3]; Table 16
  PPAR gamma (mRNA expression): 0.98
[4]; Table 15
  Glut4 (mRNA expression): 1.72
[4]; Table 16
  Glut4 (mRNA expression): 1.12
[5]; Table 57
  % Activity Relative to UTC (tube formation): 103.5%
[6]; Table 15
  AP2 (mRNA expression): 1.15
[6]; Table 16
  AP2 (mRNA expression): 0.92

## 327888 (antisense eA*eA*eT*eG*e[5mC]*e[5mC]*e[5mC]*e[5mC]*eT*eA*eA*eA*eA*eA*eT*e[5mC]*e[5mC]*eT*eT*eA*eT) [compound 327888]
[1]; Table 15
  HSL (mRNA expression): 1.38
[1]; Table 16
  HSL (mRNA expression): 0.50
[1]; [9]
  HSL mRNA: 134 percentage of untreated control (UTC)
[2]; [7]
  TG (triglyceride accumulation): 0.98
[2]; [8]
  TG (triglyceride accumulation): 0.44
[2]; [9]
  TG (triglyceride accumulation): 132 percentage of untreated control (UTC)
[3]; Table 15
  PPAR gamma (mRNA expression): 1.36
[3]; Table 16
  PPAR gamma (mRNA expression): 0.66
[3]
  PPAR gamma mRNA: 103 percentage of untreated control (UTC)
[4]; Table 15
  Glut4 (mRNA expression): 1.37
[4]; Table 16
  Glut4 (mRNA expression): 0.17
[4]; [9]
  GLUT4 mRNA: 84 percentage of untreated control (UTC)
[5]; Table 56
  % Activity Relative to UTC (tube formation): 100.0%
[6]; Table 15
  AP2 (mRNA expression): 1.18
[6]; Table 16
  AP2 (mRNA expression): 0.47
[6]; [9]
  AP2 mRNA: 102 percentage of untreated control (UTC)

## 327901 (antisense eT*eG*eA*eG*e[5mC]*eT*eA*e[5mC]*eA*eG*eT*eG*e[5mC]*eT*eT*e[5mC]*eA*eT*e[5mC]*eT*e[5mC]*eA) [compound 327901]
[1]; [10]
  HSL mRNA: 89.5 % UTC
[1]; [11]
  HSL mRNA: 73.5 % UTC
[1]; [12]
  HSL mRNA: 40.2 % UTC
[1]; [13]
  HSL mRNA: 11.9 % UTC
[1]; [14]
  HSL: 0.33
[1]; Table 15
  HSL (mRNA expression): 0.33
[1]; Table 16
  HSL (mRNA expression): 0.47
[2]; 50 nM
  Triglycerides: 85.3 % UTC
[2]; 100 nM
  Triglycerides: 68.9 % UTC
[2]; 200 nM
  Triglycerides: 34.0 % UTC
[2]; 300 nM
  Triglycerides: 23.0 % UTC
[2]; [14]
  TG: 0.54
[2]; [7]
  TG (triglyceride accumulation): 0.54
[2]; [8]
  TG (triglyceride accumulation): 0.53
[3]; 50 nM
  PPAR-gamma mRNA: 74.6 % UTC
[3]; 100 nM
  PPAR-gamma mRNA: 70.8 % UTC
[3]; 200 nM
  PPAR-gamma mRNA: 51.8 % UTC
[3]; 300 nM
  PPAR-gamma mRNA: 39.3 % UTC
[3]; [14]
  PPAR gamma: 0.30
[3]; Table 15
  PPAR gamma (mRNA expression): 0.30
[3]; Table 16
  PPAR gamma (mRNA expression): 0.72
[4]; [10]
  GLUT4 mRNA: 74.2 % UTC
[4]; [11]
  GLUT4 mRNA: 49.7 % UTC
[4]; [12]
  GLUT4 mRNA: 32.8 % UTC
[4]; [13]
  GLUT4 mRNA: 17.4 % UTC
[4]; [14]
  Glut4: 0.19
[4]; Table 15
  Glut4 (mRNA expression): 0.19
[4]; Table 16
  Glut4 (mRNA expression): 0.29
[5]; Table 57
  % Activity Relative to UTC (tube formation): 48.3%
[5]; Table 59
  % Activity Relative to UTC (tube formation): 100.0%
[6]; [10]
  AP2 mRNA: 78.3 % UTC
[6]; [11]
  AP2 mRNA: 64.6 % UTC
[6]; [12]
  AP2 mRNA: 39.0 % UTC
[6]; [13]
  AP2 mRNA: 22.4 % UTC
[6]; [14]
  AP2: 0.42
[6]; Table 15
  AP2 (mRNA expression): 0.42
[6]; Table 16
  AP2 (mRNA expression): 0.47

## 327880 (antisense eA*e[5mC]*eA*eA*eA*eT*eT*e[5mC]*eG*eG*eT*eT*e[5mC]*eT*eA*e[5mC]*eA*eG*eG*eG*eT*eA) [compound 327880]
[1]; Table 15
  HSL (mRNA expression): 0.80
[2]; [7]
  TG (triglyceride accumulation): 0.52
[3]; Table 15
  PPAR gamma (mRNA expression): 0.53
[4]; Table 15
  Glut4 (mRNA expression): 1.11
[5]; Table 56
  % Activity Relative to UTC (tube formation): 57.1%
[6]; Table 15
  AP2 (mRNA expression): 0.97

## 327933 (antisense eA*eA*eG*eG*eG*eA*eT*eT*e[5mC]*e[5mC]*eT*eG*eG*eG*eA*eA*eA*eA*e[5mC]*eT*eG*eG*eA*e[5mC]) [compound 327933]
[1]; Table 15
  HSL (mRNA expression): 1.35
[1]; [9]
  HSL mRNA: 132 percentage of untreated control (UTC)
[2]; [7]
  TG (triglyceride accumulation): 1.48
[2]; [9]
  TG (triglyceride accumulation): 127 percentage of untreated control (UTC)
[3]; Table 15
  PPAR gamma (mRNA expression): 1.52
[3]
  PPAR gamma mRNA: 100 percentage of untreated control (UTC)
[4]; Table 15
  Glut4 (mRNA expression): 2.52
[4]; [9]
  GLUT4 mRNA: 127 percentage of untreated control (UTC)
[5]; Table 58
  % Activity Relative to UTC (tube formation): 59.3%
[6]; Table 15
  AP2 (mRNA expression): 1.46
[6]; [9]
  AP2 mRNA: 82 percentage of untreated control (UTC)

## 327927 (antisense eT*eG*eT*eA*eA*eA*e[5mC]*e[5mC]*eA*eT*eG*eA*eT*eG*eT*eG*e[5mC]*eT*eG*e[5mC]*eT*eA) [compound 327927]
[1]; [9]
  HSL mRNA: 120 percentage of untreated control (UTC)
[2]; [9]
  TG (triglyceride accumulation): 125 percentage of untreated control (UTC)
[3]
  PPAR gamma mRNA: 108 percentage of untreated control (UTC)
[4]; [9]
  GLUT4 mRNA: 120 percentage of untreated control (UTC)
[5]; Table 58
  % Activity Relative to UTC (tube formation): 59.3%
[6]; [9]
  AP2 mRNA: 114 percentage of untreated control (UTC)

## 327918 (antisense e[5mC]*eT*eA*eG*eT*eA*e[5mC]*eA*eT*e[5mC]*eA*eT*e[5mC]*eT*eA*eT*eA*e[5mC]*eT*eG*eT*eA) [compound 327918]
[1]; [15]
  HSL mRNA: 85 percentage of untreated control (UTC)
[2]; [15]
  TG (triglyceride accumulation): 65 percentage of untreated control (UTC)
[3]; Table 75
  PPAR gamma mRNA: 74 percentage of untreated control (UTC)
[4]; [15]
  GLUT4 mRNA: 66 percentage of untreated control (UTC)
[5]; Table 57
  % Activity Relative to UTC (tube formation): 96.6%
[6]; [15]
  aP2 mRNA: 91 percentage of untreated control (UTC)
